{"source": "patent US6294535A", "about": "“Uracil derivatives and antitumor effect potentiator and antitumor agent containing the same” (Taiho Pharmaceutical Co., Ltd., priority 1995, dated 2001)", "key": {"thymidine phosphorylase": {"system": "thymidine phosphorylase", "details": "reported to date; cited from earlier work"}, "[1]": {"molecular_target": "T1, thymidine phosphorylase obtained from human placenta (Homo sapiens, UniProt P19971)", "T1 construct": "thymidine phosphorylase obtained from human placenta in a highly purified form; from tissue; host or cells: human placenta", "T1 sequence (P19971 11-482)": "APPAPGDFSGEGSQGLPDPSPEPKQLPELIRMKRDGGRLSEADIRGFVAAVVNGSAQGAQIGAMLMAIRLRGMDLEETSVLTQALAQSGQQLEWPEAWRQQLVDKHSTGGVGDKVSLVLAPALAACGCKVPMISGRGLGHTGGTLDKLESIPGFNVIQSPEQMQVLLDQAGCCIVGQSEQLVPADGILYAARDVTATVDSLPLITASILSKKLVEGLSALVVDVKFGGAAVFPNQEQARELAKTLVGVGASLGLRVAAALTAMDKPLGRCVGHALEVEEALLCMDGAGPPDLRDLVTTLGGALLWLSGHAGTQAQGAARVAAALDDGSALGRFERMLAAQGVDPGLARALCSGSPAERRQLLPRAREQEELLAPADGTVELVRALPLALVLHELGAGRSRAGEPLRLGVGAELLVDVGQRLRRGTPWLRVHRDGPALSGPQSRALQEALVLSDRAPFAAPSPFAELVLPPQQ", "assay": "Test 1: thymidine phosphorylase inhibiting effects (formation of [6-3H]thymine from [6-3H]thymidine)", "assay_type": "biochemical", "details": "37° C., 5 minutes, pH 7.4, 3 mM thymidine solution"}, "[2]": {"system": "Nude-mouse-transplanted human tumor", "assay": "Test 2: antitumor effects, nude-mouse-transplanted human tumor", "assay_type": "in vivo", "details": "oral, once a day for 14 days"}, "[3]": {"details": "antitumor; cited from earlier work"}, "[4]": {"system": "Nude-mouse-transplanted human tumor"}, "herpetic keratitis": {"system": "herpetic keratitis", "details": "used as an eye drop for herpetic keratitis; cited from earlier work"}, "[5]": {"system": "Nude-mouse-transplanted human tumor", "assay": "Test 4: antitumor effects, therapeutic index of F3 dThd with Compound 2", "assay_type": "in vivo", "details": "oral, once a day for 14 days", "source_text": "Test 4 (Antitumor Effects)"}, "S-180 cells": {"system": "S-180 cells", "details": "oral, once a day for 7 days"}}, "note": "pIC50: −log10 of the molar value. Read-outs that look alike come from different tables or passages of the source.", "data": [{"compound": "N#Cc1ccc(O)nc1O", "note": "[3-Cyano-2,6-dihydroxypyridine]", "values": [{"measurement": "inhibitory activities against thymidine phosphorylase", "setting": "thymidine phosphorylase", "value": "not sufficient"}]}, {"compound": "Cc1cn(COCCO)c(=O)[nH]c1=O", "note": "[Acyclothymidine]", "values": [{"measurement": "inhibitory activities against thymidine phosphorylase", "setting": "thymidine phosphorylase", "value": "not sufficient"}, {"measurement": "pIC50", "setting": "[1]", "value": "< 3.00"}]}, {"compound": "O=c1[nH]c(=O)n([C@H]2C[C@H](O)[C@@H](CO)O2)cc1C(F)(F)F", "note": "[F3 dThd, 5-Trifluoromethyl-2'-deoxyuridine]", "values": [{"measurement": "Tumor size reduction rate", "setting": "[2]; 50 mg/kg in terms of F3 dThd", "value": 27, "unit": "%"}, {"measurement": "Tumor size reduction rate", "setting": "[2]; 100 mg/kg in terms of F3 dThd", "value": 50, "unit": "%"}, {"measurement": "in vitro activities", "setting": "[3]", "value": "strong in vitro activities"}, {"measurement": "Therapeutic index BWC-10 /ED50", "setting": "[4]; mouse, in vivo, po", "value": 2.7}, {"measurement": "BWC-10", "setting": "[4]; mouse, in vivo, po, 20160 min", "value": 73.8, "unit": "mg/kg"}, {"measurement": "ED50", "setting": "[4]; oral, once a day for 14 days, 12.5-100 mg/kg in terms of F3 dThd", "value": 26.9, "unit": "mg/kg"}, {"measurement": "antiviral activities", "setting": "herpetic keratitis", "value": "has antiviral activities"}, {"measurement": "BWC-10", "setting": "[5]; body weight change, in terms of F3 dThd", "value": 103, "unit": "mg/kg"}, {"measurement": "Therapeutic index BWC-10 /ED50", "setting": "[5]", "value": 1.7}, {"measurement": "ED50", "setting": "[5]; 12.5-100 mg/kg in terms of F3 dThd", "value": 60.0, "unit": "mg/kg"}]}, {"compound": "O=c1[nH]c(=O)n([C@H]2C[C@H](O)[C@@H](CO)O2)cc1F", "note": "[FdUrd, 5-Fluoro-2'-deoxyuridine]", "values": [{"measurement": "in vitro activities", "setting": "[3]", "value": "strong in vitro activities"}, {"measurement": "Tumor size reduction rate", "setting": "S-180 cells; 5 mg/kg in terms of FdUrd", "value": 10.5, "unit": "%"}, {"measurement": "Tumor size reduction rate", "setting": "S-180 cells; 10 mg/kg in terms of FdUrd", "value": 24.4, "unit": "%"}]}]}
